Source: the supplement of paper PMC10883282

Tests used:
SW982 [1] = assay: relative viability vs DMSO control (72 h) (fraction); higher = more viable cells
Summary of the method: (§1)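 Plates held 72 h at 37 °C and 5% CO2 contained sarcoma cell lines seeded in 384-well format to reach 80–90% confluence, plus 2.5 µl of serially diluted compound added after 24 h. Source plate concentrations ran from 10 mM to 0.0002 mM, with 0.1% DMSO as vehicle and a 5 µM positive control. Percent growth from ATPLite readings, averaged over up to triplicate wells, gave relative viability. Values were rescaled with 1 as full and 0 as none.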

KHOS-240S [2] = assay: as above
Summary of the method: as §1

RD-ES [3] = assay: as above
Summary of the method: as §1

SK-ES-1 [4] = assay: as above
Summary of the method: as §1

RD [5] = assay: as above
Summary of the method: as §1

SW982 [6] = assay: standardised AUC of viability dose-response curve (72 h) (fraction (0-1)); higher = less growth inhibition (more resistant)
Summary of the method: (§2)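 After 72 h with 2.5 µl of compound (compound-plate series 10 mM to 0.0002 mM), triplicate wells of sarcoma cell lines in 384-well plates were read with ATPLite, with viability scaled 1 (full) to 0 (none) and fitted with a four-parameter log-logistic model. The values give the standardised area under the dose-response curve in log-dose space from a modified drexplorer computeAUC. A value of 1 means no response and 0 means full response.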

SK-LMS-1 = assay: as above
Summary of the method: as §2

SYO-1 = assay: as above
Summary of the method: as §2

KHOS-NP = assay: as above
Summary of the method: as §2

VA-ES-BJ = assay: as above
Summary of the method: as §2

KHOS-240S [7] = assay: as above
Summary of the method: as §2

RD-ES [8] = assay: as above
Summary of the method: as §2

SK-ES-1 [9] = assay: as above
Summary of the method: as §2

A204 = assay: as above
Summary of the method: as §2

MES-SA = assay: as above
Summary of the method: as §2

HT1080 = assay: as above
Summary of the method: as §2

HS729 = assay: as above
Summary of the method: as §2

SW1353 = assay: as above
Summary of the method: as §2

G401 = assay: as above
Summary of the method: as §2

RD [10] = assay: as above
Summary of the method: as §2

SW684 = assay: as above
Summary of the method: as §2

SW872 = assay: as above
Summary of the method: as §2

CN(C)CCCOc1ccc(-c2ccc3ncc4c(c3c2)n(C2CCOCC2)c(=O)n4C)cn1 [AZD-0156]
relative viability
Conditions	KHOS-240S [2]	RD [5]	RD-ES [3]	SK-ES-1 [4]	SW982 [1]
0.00017 µM	1.08	1.04	0.944	1.07	1.05
0.00051 µM	1.1	1.08	1.01	1.06	1.08
0.00152 µM	1.1	1.07	1.03	0.963	1.06
0.00457 µM	1.08	1.1	1	1	1.05
0.01372 µM	1.06	1.08	0.861	0.828	1.03
0.04115 µM	1.03	1.11	0.839	0.815	0.964
0.1235 µM	1.04	1.07	0.7218	0.734	0.828
0.3704 µM	0.99	1.076	0.69	0.643	0.619
1.111 µM	0.865	0.949	0.616	0.59	0.484
3.333 µM	0.814	0.592	0.548	0.626	0.349
10 µM	0.587	0.536	0.36	0.522	0.218

Conditions	standardised AUC
A204	0.854
G401	0.963
HS729	0.883
HT1080	0.991
KHOS-240S [7]	0.914
KHOS-NP	0.975
MES-SA	0.887
RD [10]	0.921
RD-ES [8]	0.785
SK-ES-1 [9]	0.748
SK-LMS-1	0.858
SW684	0.891
SW872	0.749
SW982 [6]	0.752
SW1353	0.917
SYO-1	0.777
VA-ES-BJ	0.753

CN(C)C(=O)c1cc2cnc(Nc3ccc(N4CCNCC4)cn3)nc2n1C1CCCC1 [Ribociclib]
relative viability
Conditions	KHOS-240S [2]	RD [5]	RD-ES [3]	SK-ES-1 [4]	SW982 [1]
0.00017 µM	1.08	1.13	0.9605	1.03	1.03
0.00051 µM	1.07	1.06	0.9809	1.04	1.03
0.00152 µM	1.08	1.08	0.959	1.06	1.04
0.00457 µM	1.1	1.12	0.985	1.02	1.0148
0.01372 µM	1.06	1.09	0.926	1.04	1.05
0.04115 µM	1.08	1.05	0.9	0.989	1.02
0.1235 µM	1.04	1.04	0.845	0.837	0.992
0.3704 µM	1.05	1.06	0.773	0.761	1.02
1.111 µM	1	0.995	0.735	0.659	0.993
3.333 µM	0.891	0.915	0.602	0.466	0.788
10 µM	0.784	0.87	0.546	0.427	0.66

COC(=O)c1ccc2c(c1)NC(=O)/C2=C(\Nc1ccc(N(C)C(=O)CN2CCN(C)CC2)cc1)c1ccccc1 [Nintedanib]
relative viability
Conditions	KHOS-240S [2]	RD [5]	RD-ES [3]	SK-ES-1 [4]	SW982 [1]
0.00017 µM	1.05	1.03	0.955	1	0.999
0.00051 µM	1.05	1.03	0.96	0.951	0.996
0.00152 µM	1.04	0.989	0.944	0.945	1
0.00457 µM	1.04	1.01	0.958	0.961	0.994
0.01372 µM	1.04	0.977	0.945	1.03	0.975
0.04115 µM	1.02	0.97	0.927	1.03	0.965
0.1235 µM	0.985	0.96	0.806	0.986	1
0.3704 µM	0.875	0.965	0.73	0.883	0.961
1.111 µM	0.702	0.873	0.706	0.571	0.87
3.333 µM	0.6	0.777	0.667	0.399	0.823
10 µM	0.101	0.0216	0.203	0.0168	0.0461

CCc1nc(C(N)=O)c(Nc2ccc(N3CCC(N4CCN(C)CC4)CC3)c(OC)c2)nc1NC1CCOCC1 [Gilteritinib]
relative viability
Conditions	KHOS-240S [2]	RD [5]	RD-ES [3]	SK-ES-1 [4]	SW982 [1]
60 pM	1.08	1.06	0.986	0.996	0.9618
0.00018 µM	1.06	1.06	0.961	1.03	0.996
0.00053 µM	1.08	1.07	0.9574	1.07	0.978
0.0016 µM	1.04	1.08	0.968	1.01	0.967
0.0048 µM	1.08	1.08	0.963	0.979	0.988
0.014 µM	1.02	1.07	0.938	0.964	0.947
0.043 µM	0.985	1.01	0.88	0.932	0.945
0.13 µM	0.913	0.829	0.687	0.697	0.612
0.389 µM	0.848	0.516	0.316	0.208	0.277
1.167 µM	0.509	0.363	0.11	0.112	0.195
3.5 µM	0.398	0.32	0.14	0.119	0.2

Cc1cc2c(F)c(Oc3ncnn4cc(OC[C@@H](C)OC(=O)[C@H](C)N)c(C)c34)ccc2[nH]1 [Brivanib_alaninate]
relative viability
Conditions	KHOS-240S [2]	RD [5]	RD-ES [3]	SK-ES-1 [4]	SW982 [1]
0.00017 µM	1.016	1.07	0.953	1.07	1.05
0.00051 µM	1.04	1.07	0.9804	1.07	1.03
0.00152 µM	1.03	1.1	0.983	1.06	1.04
0.00457 µM	1.04	1.09	0.983	1.05	1.04
0.01372 µM	1.052	1.1	0.996	1.05	1.05
0.04115 µM	1.03	1.08	0.989	1.03	1.05
0.1235 µM	1.03	1.09	0.962	1.06	1.06
0.3704 µM	1.04	1.1	1	1.05	1.04
1.111 µM	1.007	1.12	0.987	1.044	1.09
3.333 µM	0.93	1.04	0.9601	0.991	1.08
10 µM	0.738	0.874	0.926	0.921	1.12

CNC(=O)c1cccc2cc(Oc3ccnc4cc(OCC5(N)CC5)c(OC)cc34)ccc12 [Lucitanib]
relative viability
Conditions	KHOS-240S [2]	RD [5]	RD-ES [3]	SK-ES-1 [4]	SW982 [1]
0.00017 µM	1.1	1.08	0.984	1.07	1.03
0.00051 µM	1.05	1.12	1.01	1.12	1.06
0.00152 µM	1.1	1.1	1	1.09	1.06
0.00457 µM	1.06	1.13	1	1.11	1.049
0.01372 µM	1.07	1.09	0.969	1.01	1.03
0.04115 µM	1.05	1.129	0.99	1.07	1.05
0.1235 µM	1.02	1.13	0.981	1	1.03
0.3704 µM	0.946	1.142	0.949	1.07	1.04
1.111 µM	0.817	1.144	0.92	1.01	1.03
3.333 µM	0.771	1.12	0.882	0.865	0.972
10 µM	0.632	0.9078	0.798	0.531	0.608

CCS(=O)(=O)N1CC(CC#N)(n2cc(-c3ncnc4[nH]ccc34)cn2)C1 [Baricitinib]
relative viability
Conditions	KHOS-240S [2]	RD [5]	RD-ES [3]	SK-ES-1 [4]	SW982 [1]
0.00017 µM	1.035	1.02	0.981	0.959	0.981
0.00051 µM	1.022	1.02	0.9701	1.01	0.983
0.00152 µM	1.037	1.03	0.947	1.004	0.976
0.00457 µM	1.04	1.03	0.9683	0.986	0.985
0.01372 µM	1.03	1.027	0.951	0.9898	1.0047
0.04115 µM	1.019	0.991	0.947	0.987	0.98
0.1235 µM	1.05	0.999	0.956	0.987	0.987
0.3704 µM	1.03	1.03	0.9847	0.958	0.993
1.111 µM	1.04	1.051	1.03	1.04	0.98
3.333 µM	0.958	1.12	1.04	1.05	0.966
10 µM	0.7777	1.03	1.04	1.01	0.748

O=C(c1ccc(F)c(F)c1Nc1ccc(I)cc1F)N1CC(O)([C@@H]2CCCCN2)C1 [Cobimetinib]
relative viability
Conditions	KHOS-240S [2]	RD [5]	RD-ES [3]	SK-ES-1 [4]	SW982 [1]
0.00017 µM	1.07	1.1	0.999	1.04	1.04
0.00051 µM	1.07	1.1	1.02	1	1.02
0.00152 µM	1.09	1.07	0.985	1.04	1
0.00457 µM	1.05	1.02	0.986	1.03	1.01
0.01372 µM	1.03	0.88	0.945	1.04	0.98
0.04115 µM	0.936	0.766	0.979	1.01	0.942
0.1235 µM	0.79	0.636	0.955	1.02	0.878
0.3704 µM	0.709	0.539	0.982	0.982	0.804
1.111 µM	0.669	0.461	0.974	0.923	0.765
3.333 µM	0.549	0.346	0.91	0.842	0.578
10 µM	0.0497	0.0053	0.0147	0.0122	0.0118

C#Cc1cccc(Nc2ncnc3cc4c(cc23)OCCOCCOCCO4)c1 [Icotinib]
relative viability
Conditions	KHOS-240S [2]	RD [5]	RD-ES [3]	SK-ES-1 [4]	SW982 [1]
0.00017 µM	1.07	1.09	0.983	1.03	1.01
0.00051 µM	1.1	1.1	0.998	1.06	1.03
0.00152 µM	1.1	1.13	0.989	1.06	1.04
0.00457 µM	1.1	1.124	1.01	1.01	1.03
0.01372 µM	1.1	1.15	0.991	1.073	1.049
0.04115 µM	1.09	1.08	0.982	1.08	1.06
0.1235 µM	1.1	1.12	0.976	1.068	1.06
0.3704 µM	1.09	1.15	0.991	1.07	1.05
1.111 µM	1.09	1.1	0.973	0.998	0.999
3.333 µM	1.04	1.15	0.977	1.01	0.9946
10 µM	1.03	1.14	0.959	0.934	0.977
